Results published in patent publication US20070243576A1, “Method to confirm immunosuppression in human patients by measuring lymphocyte activation” (priority 2001, published 2007).

Experiments:
[1] = system: T-Lymphocytes (CD4 subset) in whole blood; type: cell-based, human
[2] = system: T-lymphocytes in whole blood; type: cell-based, human
[3] = system: T lymphocytes (CD4 subset) in whole blood; assay: Whole blood ATP response after stimulation with PHA, 2-24 hr (Example 2); type: cell-based, human; conditions: PHA 1%
Method: Aliquots of the blood were diluted 1:10 in RPMI 1640. Replicates received either no addition or the mitogen PHA at 1% final concentration. Samples were incubated at 37° C. […] The cells and beads were placed next to a permanent magnet positioned such that the magnetic field was in a direction perpendicular to gravity. […] Assay Reagent (luciferin/luciferase) was added to the samples ATP production was determined as described above. […] The response is clearly evident at 4 hours of incubation, peaks at 8 hours, and remains high at 24 hrs post stimulation.

[4] = system: T-Lymphocytes (CD4 subset) in whole blood; assay: T-lymphocyte ATP response to PHA in normal and HIV infected donors (Example 4); conditions: PHA 10 ug/mL, overnight incubation, anti-CD4 beads

Substance | increase in ATP over background [1] | time within which activation of the T lymphocyte subset is detected [1] [h] | increase in ATP over background [2] | increase in ATP over background ([3]; all time points (2, 4, 6, 8, 24 hr)) | time of peak ATP response ([3]; time course 2-24 hr) [h] | ATP response to PHA, HIV+ population versus normal donors [4]
Tetanus Toxoid | significant | ≤ 5 | increase in ATP over background | – | – | –
Phytohemagglutinin [PHA] | statistically significant increase | ≤ 0.5 | – | increase in ATP over background | 8 | lower than the normal donor population
